One assay addresses Troponin, cardiac muscle (Homo sapiens, UniProt P19429+P45379+P63316). Put plainly: Fluorescence-based biochemical high throughput dose response assay for activators of the calcium sensitivity of cardiac Regulated Thin Filaments (RTF). [Related pubchem assays (depositor defined):AID493008, AID493018, AID504382, AID504383]. The format is protein-complex assay.
Assay [1] is described as follows: microbe, parasite or virus in culture. To be noted: Mycobacterium tuberculosis. The format is functional.
Another assay addresses T1, Protein RecA (Mycobacterium tuberculosis, UniProt P9WHJ3).
T1 sequence (P9WHJ3 whole entry): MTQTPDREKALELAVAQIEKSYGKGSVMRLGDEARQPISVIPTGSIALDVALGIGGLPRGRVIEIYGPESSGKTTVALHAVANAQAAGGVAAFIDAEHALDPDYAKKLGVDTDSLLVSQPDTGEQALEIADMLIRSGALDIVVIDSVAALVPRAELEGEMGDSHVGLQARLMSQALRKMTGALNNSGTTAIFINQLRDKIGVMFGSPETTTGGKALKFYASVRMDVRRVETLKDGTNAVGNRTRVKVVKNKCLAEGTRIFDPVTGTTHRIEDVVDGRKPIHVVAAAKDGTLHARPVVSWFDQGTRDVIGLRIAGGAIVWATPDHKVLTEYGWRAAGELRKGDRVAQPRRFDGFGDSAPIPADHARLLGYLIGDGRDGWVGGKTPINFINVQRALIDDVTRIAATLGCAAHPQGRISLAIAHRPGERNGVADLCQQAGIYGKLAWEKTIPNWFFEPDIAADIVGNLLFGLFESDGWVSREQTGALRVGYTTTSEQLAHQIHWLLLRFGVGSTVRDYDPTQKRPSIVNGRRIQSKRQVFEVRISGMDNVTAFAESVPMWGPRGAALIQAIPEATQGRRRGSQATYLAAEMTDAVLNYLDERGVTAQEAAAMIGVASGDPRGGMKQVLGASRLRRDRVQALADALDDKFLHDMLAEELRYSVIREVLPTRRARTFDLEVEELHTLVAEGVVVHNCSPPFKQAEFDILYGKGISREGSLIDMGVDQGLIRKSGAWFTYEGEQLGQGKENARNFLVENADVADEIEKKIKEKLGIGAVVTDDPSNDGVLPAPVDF
The experiment in a line: Fluorescence Cell-Free Homogeneous Dose Retest to Identify Inhibitors of RecA-Intein Splicing Activity. [Related pubchem assays (depositor defined):AID2097, AID2223, AID489010, AID492950]. The format is functional.

Assay [2] deals with T2, Short transient receptor potential channel 4 (Mus musculus, UniProt Q9QUQ5).
T2 sequence (Q9QUQ5 whole entry): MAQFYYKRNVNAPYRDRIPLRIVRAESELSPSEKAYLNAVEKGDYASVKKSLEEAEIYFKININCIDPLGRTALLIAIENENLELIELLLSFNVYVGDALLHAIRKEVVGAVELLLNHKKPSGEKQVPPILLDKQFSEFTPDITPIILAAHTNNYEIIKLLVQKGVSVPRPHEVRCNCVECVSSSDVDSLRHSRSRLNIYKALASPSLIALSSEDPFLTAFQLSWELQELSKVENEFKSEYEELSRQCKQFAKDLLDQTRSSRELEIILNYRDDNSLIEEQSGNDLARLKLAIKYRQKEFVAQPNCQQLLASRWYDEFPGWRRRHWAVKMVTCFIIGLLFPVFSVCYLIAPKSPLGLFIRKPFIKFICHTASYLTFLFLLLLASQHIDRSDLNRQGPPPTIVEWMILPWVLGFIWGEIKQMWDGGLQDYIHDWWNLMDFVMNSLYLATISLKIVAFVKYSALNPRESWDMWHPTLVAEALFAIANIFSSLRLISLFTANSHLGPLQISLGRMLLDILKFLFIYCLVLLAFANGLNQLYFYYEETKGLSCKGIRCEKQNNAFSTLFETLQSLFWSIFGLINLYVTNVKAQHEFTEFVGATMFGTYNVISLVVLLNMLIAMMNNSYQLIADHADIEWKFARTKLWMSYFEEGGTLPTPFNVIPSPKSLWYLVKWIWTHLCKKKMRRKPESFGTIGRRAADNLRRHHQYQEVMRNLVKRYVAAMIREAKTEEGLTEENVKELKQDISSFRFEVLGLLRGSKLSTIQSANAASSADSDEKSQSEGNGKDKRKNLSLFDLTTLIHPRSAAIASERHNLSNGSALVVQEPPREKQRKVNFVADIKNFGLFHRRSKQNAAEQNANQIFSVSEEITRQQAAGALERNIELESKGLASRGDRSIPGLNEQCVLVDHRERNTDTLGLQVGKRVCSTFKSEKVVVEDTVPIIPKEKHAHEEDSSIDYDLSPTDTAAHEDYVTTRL
The experiment in a line: mouse TRPC4 channel activators, dose response, cell-based, HEK293 TRPC4/mu-opioid, Fluo-4 calcium (AID 434937). The format is functional.

The next assay addresses T3, Cytochrome P450 1A2 (Homo sapiens, UniProt P05177).
T3 sequence (P05177 whole entry): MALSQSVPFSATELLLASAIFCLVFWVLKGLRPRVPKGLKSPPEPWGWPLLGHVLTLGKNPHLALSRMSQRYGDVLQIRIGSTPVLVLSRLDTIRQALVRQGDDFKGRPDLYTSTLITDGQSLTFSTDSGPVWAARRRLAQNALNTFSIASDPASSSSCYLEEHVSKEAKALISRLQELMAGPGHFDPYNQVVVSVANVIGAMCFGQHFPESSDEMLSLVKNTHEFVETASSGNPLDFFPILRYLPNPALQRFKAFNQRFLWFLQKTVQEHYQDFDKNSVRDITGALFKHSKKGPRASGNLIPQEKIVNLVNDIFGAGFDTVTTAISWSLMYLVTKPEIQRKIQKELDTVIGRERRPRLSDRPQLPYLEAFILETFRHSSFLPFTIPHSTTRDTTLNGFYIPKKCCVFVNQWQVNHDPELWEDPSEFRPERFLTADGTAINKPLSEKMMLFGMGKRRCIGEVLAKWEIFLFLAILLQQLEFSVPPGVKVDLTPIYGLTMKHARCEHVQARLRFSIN

The next assay concerns the target T4, X-box-binding protein 1 (Homo sapiens, UniProt P17861).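 Further: confirmatory dose-response counter-screen serving a CHOP assay.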
T4 sequence (P17861 whole entry): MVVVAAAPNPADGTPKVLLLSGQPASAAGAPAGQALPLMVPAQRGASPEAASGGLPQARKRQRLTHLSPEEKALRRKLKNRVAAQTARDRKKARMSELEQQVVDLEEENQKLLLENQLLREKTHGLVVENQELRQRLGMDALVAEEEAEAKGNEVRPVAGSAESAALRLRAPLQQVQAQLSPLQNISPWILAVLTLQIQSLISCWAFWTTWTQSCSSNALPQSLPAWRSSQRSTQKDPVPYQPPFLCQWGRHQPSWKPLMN
The format is functional, Cricetulus griseus.

In another assay the target is Cytochrome P450 2C19 (Homo sapiens, UniProt P33261). The experiment in a line: Cytochrome panel assay with activity outcomes. Panel member name: p450-cyp2c19 Compounds with AC50 equal or less than 10 uM are considered active. The format is functional. To be noted: read-out: AC50.
Assay [3] has as its target T5, Replicative DNA helicase DnaB (Mycobacterium tuberculosis, UniProt P9WMR3).
T5 sequence (P9WMR3 whole entry): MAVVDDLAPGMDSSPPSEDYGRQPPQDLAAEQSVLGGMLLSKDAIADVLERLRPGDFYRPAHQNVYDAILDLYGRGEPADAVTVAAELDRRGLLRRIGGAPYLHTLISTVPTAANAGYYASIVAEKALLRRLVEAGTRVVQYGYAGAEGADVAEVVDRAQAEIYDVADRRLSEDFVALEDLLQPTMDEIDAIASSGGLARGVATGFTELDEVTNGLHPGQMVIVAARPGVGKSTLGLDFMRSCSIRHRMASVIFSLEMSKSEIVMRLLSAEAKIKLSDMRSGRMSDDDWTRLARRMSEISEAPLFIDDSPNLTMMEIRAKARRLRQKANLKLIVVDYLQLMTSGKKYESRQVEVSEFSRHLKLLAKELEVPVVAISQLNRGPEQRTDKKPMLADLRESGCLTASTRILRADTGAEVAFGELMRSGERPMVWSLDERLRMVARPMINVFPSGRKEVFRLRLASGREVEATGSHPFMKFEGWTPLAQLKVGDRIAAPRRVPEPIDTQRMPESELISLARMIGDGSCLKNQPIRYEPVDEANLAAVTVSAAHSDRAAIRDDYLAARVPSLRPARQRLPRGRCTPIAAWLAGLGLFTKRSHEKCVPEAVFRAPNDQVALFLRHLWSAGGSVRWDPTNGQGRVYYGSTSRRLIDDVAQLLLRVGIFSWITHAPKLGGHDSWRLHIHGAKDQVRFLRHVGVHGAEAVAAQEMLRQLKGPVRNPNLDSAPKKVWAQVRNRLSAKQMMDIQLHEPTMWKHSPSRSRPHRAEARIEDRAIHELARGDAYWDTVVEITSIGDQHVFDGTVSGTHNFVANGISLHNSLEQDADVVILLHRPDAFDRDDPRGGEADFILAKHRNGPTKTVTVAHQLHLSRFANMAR
The experiment in a line: DnaB intein splicing inhibitors, dose response, biochemical, cell-free fluorescence (AID 449749). The format is functional.

A further assay has as its target Melanocortin receptor 4 (Homo sapiens, UniProt P32245). The format is functional, cell-based.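 Further: Cell-based assay with luminescence read-out, confirmatory dose-response testing for agonist activity of biased ligands at MC4R; human U2OS cells with tagged receptor and beta-arrestin; potency of agonists that increase receptor coupling to beta-arrestin.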
For the next assay, the system named is H9c2. Put plainly: cells. Particulars: Rattus norvegicus, H9c2, Myocardium. The format is functional, cell-based.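 Further: confirmatory concentration-response retest of ultra-high-throughput screening hits for modulation of myocardial damage; cell death induced by hydrogen peroxide oxidative stress; compound pretreatment for 60 min then peroxide exposure for 2 h; potency is for protecting the cells against peroxide damage rather than for killing them.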
In the next assay the target is T6, Coagulation factor XII (Homo sapiens, UniProt P00748).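 Further: activated factor XIIa alpha cleaving a fluorogenic AMC peptide substrate; inhibitor potency from loss of enzyme activity.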
T6 sequence (P00748 whole entry): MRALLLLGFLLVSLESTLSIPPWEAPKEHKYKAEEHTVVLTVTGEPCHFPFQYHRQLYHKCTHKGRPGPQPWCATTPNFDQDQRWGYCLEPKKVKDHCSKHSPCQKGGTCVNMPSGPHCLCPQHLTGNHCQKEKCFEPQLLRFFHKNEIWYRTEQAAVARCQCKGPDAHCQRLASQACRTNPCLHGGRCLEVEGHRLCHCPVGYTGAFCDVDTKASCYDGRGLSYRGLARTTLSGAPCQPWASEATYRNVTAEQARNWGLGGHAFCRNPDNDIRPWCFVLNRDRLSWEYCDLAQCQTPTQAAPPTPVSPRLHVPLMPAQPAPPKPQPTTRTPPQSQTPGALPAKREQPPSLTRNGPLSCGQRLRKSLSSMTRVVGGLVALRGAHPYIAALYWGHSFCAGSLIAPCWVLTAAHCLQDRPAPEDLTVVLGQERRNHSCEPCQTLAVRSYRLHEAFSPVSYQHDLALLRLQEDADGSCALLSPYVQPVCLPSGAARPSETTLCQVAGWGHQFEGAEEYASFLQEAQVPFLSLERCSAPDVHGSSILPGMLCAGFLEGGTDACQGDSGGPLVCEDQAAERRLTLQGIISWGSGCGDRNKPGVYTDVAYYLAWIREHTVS
The format is functional.

A further assay addresses T7, Leucine aminopeptidase (Plasmodium falciparum 3D7, UniProt Q8IL11).
T7 sequence (Q8IL11 whole entry): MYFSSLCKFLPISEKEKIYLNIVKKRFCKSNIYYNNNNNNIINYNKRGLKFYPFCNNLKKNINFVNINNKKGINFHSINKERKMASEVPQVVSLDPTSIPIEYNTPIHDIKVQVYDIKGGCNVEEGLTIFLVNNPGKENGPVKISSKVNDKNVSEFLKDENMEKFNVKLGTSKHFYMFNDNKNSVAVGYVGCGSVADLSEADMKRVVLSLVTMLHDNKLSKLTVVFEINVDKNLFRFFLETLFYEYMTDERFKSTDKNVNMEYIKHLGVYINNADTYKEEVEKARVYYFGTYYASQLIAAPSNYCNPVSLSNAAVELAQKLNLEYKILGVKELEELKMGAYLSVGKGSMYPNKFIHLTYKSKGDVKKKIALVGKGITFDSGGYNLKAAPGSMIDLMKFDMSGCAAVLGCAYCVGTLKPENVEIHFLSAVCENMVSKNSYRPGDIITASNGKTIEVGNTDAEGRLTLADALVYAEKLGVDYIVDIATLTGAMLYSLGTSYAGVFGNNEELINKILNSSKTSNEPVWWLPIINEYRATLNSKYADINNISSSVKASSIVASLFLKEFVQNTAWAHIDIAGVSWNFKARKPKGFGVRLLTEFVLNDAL
The experiment in a line: P. falciparum M17LAP inhibitors, primary screen, biochemical, fluorogenic H-Leu-NHMec substrate, 1536-well (AID 1619). The format is functional.

Assay [4] concerns the target DNA dC->dU-editing enzyme APOBEC-3G (Homo sapiens, UniProt Q9HC16). Put plainly: Dose Response confirmation of small molecule APOBEC3G DNA Deaminase Inhibitors via a fluorescence-based single-stranded DNA deaminase assay. [Related pubchem assays (depositor defined):AID493012, AID493028]. The format is functional.

Values joined by “and” are separate entries in the source; they are usually repeats but may differ in a detail not shown here. Equal values may be shown once. Active and inactive are the calls of the source. A value given as a limit tells only on which side of the number the result lay.

For orientation: EC50 means the concentration needed to bring the measured effect to its halfway point. As to `COc1cccc(CC(NC(C)=O)C(=O)NC2CCN(c3nc(C)cc(C)c3C#N)CC2)c1OC` (configuration not stated), the EC50 at Troponin, cardiac muscle is > 71.5 µM (inactive).
For orientation: AC50 means the concentration at which the activity in the assay is half-maximal. In the case of `O=C1NCN(c2ccccc2)C12CCN(CCCC(c1ccc(F)cc1)c1ccc(F)cc1)CC2`, in [1], the CC50 was 32.9 µM (active). Besides, the figures for the 50% effective concentration (EC50) (at Protein RecA; in [2]) were 20.2 µM (active) and 6.68 µM (active), respectively. In addition, the AC50 on Cytochrome P450 1A2 was 12.6 µM (inconclusive); at Cytochrome P450 2C19, 7.94 µM (inconclusive) and 15.8 µM (inconclusive); in [3], 9.69 µM (active). On X-box-binding protein 1, the “Absolute IC50 (XBP1)” value was 10 µM.
Take `Cc1ccc2nc(Nc3ccc4[nH]c(O)nc4c3)c(-n3nc(C)cc3C)nc2c1`: the EC50 at Melanocortin receptor 4 was > 89.2 µM (inactive). Further, the “Absolute IC50 (XBP1)” value on X-box-binding protein 1 amounted to 10 µM.
As usually defined, the IC50 is the concentration that inhibits the measured activity by half. Consider `COc1ccc(/C=N/NC(=O)c2cc(OC)c(OC)c(OC)c2)cc1CN1CCc2cc(OC)c(OC)cc2C1C` (configuration not stated), for which the EC50 on Troponin, cardiac muscle is > 71.5 µM (inactive). In addition, the IC50 with H9c2 was 19.5 µM (active).
Consider `Cc1ccc(S(=O)(=O)NCCCCCC(=O)Nc2ccccc2C)cc1`, for which the EC50 at Troponin, cardiac muscle was > 71.5 µM (inactive).
With `COC(=O)C(C)Sc1nnc(Cc2cc(O)nc(O)n2)n1-c1ccc(Cl)cc1` (configuration not stated), the IC50 on Coagulation factor XII was > 50 µM (inactive).
Consider `Cc1nc2ccccc2n1C1CCN(Cc2nnnn2CCc2ccccc2)CC1`, for which the IC50 at Coagulation factor XII was > 50 µM (inactive).
With `CCOc1ccccc1N1C(=O)CC(Sc2n[nH]c(-c3ccccc3)n2)C1=O` (configuration not stated), the figures for the 50% inhibitory concentration (IC50) (at Leucine aminopeptidase; in [4]) were 8.97 µM (active) and 9.92 µM (active), respectively.

The values above are taken from ChEMBL document CHEMBL1201862, “PubChem BioAssay data set” (2004).
